Assay [1] deals with recombinant guanylate cyclase reporter cell line (Rattus norvegicus (Rat), UniProt P19686+P20595). As to the kind of experiment: Effect on a recombinant guanylate cyclase reporter cell line. The following applies: in some cases means of individual determinations. It is filed as cell-based. The protocol: B-2. Effect on a Recombinant Guanylate Cyclase Reporter Cell Line
The cellular activity of the compounds according to the invention is determined using a recombinant guanylate cyclase reporter cell line, as described in F. Wunder et al., Anal. Biochem. 339, 104-112 (2005).
Representative values (MEC=minimum effective concentration) for the compounds according to the invention are shown in the table below (Table 1; in some cases as means of individual determinations): […]

In assay [2] the target is human phosphodiesterase 5 (PDE 5) (Homo sapiens (Human), UniProt O76074). As to the kind of experiment: Inhibition of human phosphodiesterase 5 (PDE 5). The note with it: PDE 5 preparation from human platelets; [8-3H] cGMP substrate, SPA; in some cases means of individual determinations. Format: biochemical. On the procedure: B-3. Inhibition of Human Phosphodiesterase 5 (PDE 5)
PDE 5 preparations are obtained from human platelets by disruption (Microfluidizer®, 800 bar, 3 passes), followed by centrifugation (75000 g, 60 min, 4° C.) and ion exchange chromatography of the supernatant on a Mono Q 10/10 column (linear sodium chloride gradient, elution with a 0.2-0.3M solution of sodium chloride in buffer (20 mM Hepes pH 7.2, 2 mM magnesium chloride). Fractions having PDE 5 activity are combined (PDE 5 preparation) and stored at −80° C.
To determine their in vitro action on human PDE 5, the test substances are dissolved in 100% DMSO and serially diluted. Typically, dilution series (1:3) from 200 μM to 0.091 μM are prepared (resulting final concentrations in the test: 4 μM to 0.0018 μM). In each case 2 μl of the diluted substance solutions are placed into the wells of microtitre plates (Isoplate-96/200W; Perkin Elmer). Subsequently, 50 μl of a dilution of the above-described PDE 5 preparation are added. The dilution of the PDE 5 preparation is chosen such that during the later incubation less than 70% of the substrate are converted (typical dilution: 1:100; dilution buffer: 50 mM tris/hydrochloric acid pH 7.5, 8.3 mM magnesium chloride, 1.7 mM EDTA, 0.2% BSA). The substrate, [8-^3H] cyclic guanosine-3′,5′-monophosphate (1 μCi/μl; Perkin Elmer) is diluted 1:2000 with assay buffer (50 mM tris/hydrochloric acid pH 7.5, 8.3 mM magnesium chloride, 1.7 mM EDTA) to a concentration of 0.0005 μCi/μl. By addition of 50 μl (0.025 μCi) of the diluted substrate, the enzyme reaction is finally started. The test mixtures are incubated at room temperature for 60 min and the reaction is stopped by adding 25 μl of a suspension of 18 mg/ml yttrium scintillation proximity beads in water (phosphodiesterase beads for SPA assays, RPNQ 0150, Perkin Elmer). The microtitre plates are sealed with a film and left to stand at room temperature for 60 min. Subsequently, the plates are analysed for 30 s per well in a Microbeta scintillation counter (Perkin Elmer). IC50 values are determined using the graphic plot of the substance concentration against percentage PDE 5 inhibition.

Molecules are shown by their SMILES.

The term IC50 denotes the concentration that inhibits the measured activity by half. The low end stands for greater potency, the high end for weaker potency.

Chain of recombinant guanylate cyclase reporter cell line (P19686 whole entry): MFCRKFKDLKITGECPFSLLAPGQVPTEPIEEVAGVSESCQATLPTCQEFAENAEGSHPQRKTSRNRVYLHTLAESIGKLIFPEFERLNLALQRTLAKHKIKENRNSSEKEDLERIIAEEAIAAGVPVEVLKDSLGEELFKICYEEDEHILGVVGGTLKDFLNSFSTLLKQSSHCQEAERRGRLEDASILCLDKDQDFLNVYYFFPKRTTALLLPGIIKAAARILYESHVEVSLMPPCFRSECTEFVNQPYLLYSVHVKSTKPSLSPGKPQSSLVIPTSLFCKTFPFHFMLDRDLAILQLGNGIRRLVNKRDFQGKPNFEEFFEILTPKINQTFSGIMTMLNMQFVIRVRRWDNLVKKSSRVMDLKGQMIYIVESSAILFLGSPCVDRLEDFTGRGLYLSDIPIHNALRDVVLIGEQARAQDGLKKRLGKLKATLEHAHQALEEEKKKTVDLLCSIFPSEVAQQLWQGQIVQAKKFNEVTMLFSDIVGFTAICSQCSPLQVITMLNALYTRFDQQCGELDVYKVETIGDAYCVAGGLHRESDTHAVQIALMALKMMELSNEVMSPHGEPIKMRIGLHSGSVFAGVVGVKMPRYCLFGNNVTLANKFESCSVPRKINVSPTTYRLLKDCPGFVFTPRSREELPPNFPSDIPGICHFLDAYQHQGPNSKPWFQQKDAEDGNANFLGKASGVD
Chain of recombinant guanylate cyclase reporter cell line (P20595 whole entry): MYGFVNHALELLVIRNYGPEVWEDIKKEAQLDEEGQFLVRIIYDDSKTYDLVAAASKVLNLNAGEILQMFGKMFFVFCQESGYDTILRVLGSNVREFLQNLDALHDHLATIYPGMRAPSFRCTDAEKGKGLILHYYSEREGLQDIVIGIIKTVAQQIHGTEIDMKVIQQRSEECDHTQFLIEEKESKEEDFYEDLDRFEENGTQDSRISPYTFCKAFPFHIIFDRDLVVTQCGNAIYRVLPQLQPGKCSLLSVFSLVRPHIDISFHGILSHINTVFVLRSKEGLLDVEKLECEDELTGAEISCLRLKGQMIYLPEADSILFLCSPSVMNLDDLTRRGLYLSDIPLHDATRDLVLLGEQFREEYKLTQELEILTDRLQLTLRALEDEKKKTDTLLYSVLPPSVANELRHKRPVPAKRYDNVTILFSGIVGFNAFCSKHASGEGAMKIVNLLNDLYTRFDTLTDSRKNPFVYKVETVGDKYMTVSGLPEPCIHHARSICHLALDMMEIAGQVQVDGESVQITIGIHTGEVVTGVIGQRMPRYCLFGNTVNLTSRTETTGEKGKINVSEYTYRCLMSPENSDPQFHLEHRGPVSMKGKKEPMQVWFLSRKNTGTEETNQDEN

For `Cc1nc2c(cc1F)c(-c1nnc3c(n1)NC(=O)C3(C)C)nn2Cc1cccc(F)c1F` [Example 1, 3-[1-(2,3-Difluorobenzyl)-5-fluoro-6-methyl-1H-pyrazolo[3,4-b]pyridin-3-yl]-7,7-dimethyl-5,7-dihydro-6H-pyrrolo[2,3-e][1,2,4]triazin-6-one], the “MEC (minimum effective concentration)” value in assay [1] is recorded as 30 nM. This compound gave an IC50 in assay [2] of 5 nM.
Take `Cc1nc2c(cc1F)c(-c1nnc3c(n1)[N-]C(=O)C3(C)C)nn2Cc1cccc(F)c1F.[Na+]` [Example 2, Sodium 3-[1-(2,3-difluorobenzyl)-5-fluoro-6-methyl-1H-pyrazolo[3,4-b]pyridin-3-yl]-7,7-dimethyl-6-oxo-6,7-dihydropyrrolo[2,3-e][1,2,4]triazin-5-ide]: in assay [1], the “MEC (minimum effective concentration)” value worked out at 30 nM. This compound also came in with an IC50 in assay [2] of 5 nM.
`Cc1ccc(Cn2nc(-c3nnc4c(n3)NC(=O)C4(C)C)c3cc(F)c(C)nc32)c(F)c1` [Example 5, 3-[5-Fluoro-1-(2-fluoro-4-methylbenzyl)-6-methyl-1H-pyrazolo[3,4-b]pyridin-3-yl]-7,7-dimethyl-5,7-dihydro-6H-pyrrolo[2,3-e][1,2,4]triazin-6-one]: in assay [1], the “MEC (minimum effective concentration)” value worked out at 100 nM. The same compound yielded a 50% inhibitory concentration (IC50) in assay [2] of 1.5 nM.
The like results for `Cc1ccc(Cn2nc(-c3nnc4c(n3)NC(=O)C4(C)C)c3ccc(C)nc32)c(F)c1` [Example 6, 3-[1-(2-Fluoro-4-methylbenzyl)-6-methyl-1H-pyrazolo[3,4-b]pyridin-3-yl]-7,7-dimethyl-5,7-dihydro-6H-pyrrolo[2,3-e][1,2,4]triazin-6-one] were, in that order, 200 nM and 2 nM.
The like results for `Cc1nc2c(cc1F)c(-c1nnc3c(n1)NC(=O)C3(C)C)nn2Cc1ccc(F)cc1F` [Example 7, 3-[1-(2,4-Difluorobenzyl)-5-fluoro-6-methyl-1H-pyrazolo[3,4-b]pyridin-3-yl]-7,7-dimethyl-5,7-dihydro-6H-pyrrolo[2,3-e][1,2,4]triazin-6-one] were, in that order, 100 nM and 21 nM.
The like results for `Cc1ccc2c(-c3nnc4c(n3)NC(=O)C4(C)C)nn(Cc3ccc(F)cc3F)c2n1` [Example 8, 3-[1-(2,4-Difluorobenzyl)-6-methyl-1H-pyrazolo[3,4-b]pyridin-3-yl]-7,7-dimethyl-5,7-dihydro-6H-pyrrolo[2,3-e][1,2,4]triazin-6-one] were, in that order, 300 nM and 34 nM.
As for `Cc1nc2c(cc1F)c(-c1nnc3c(n1)NC(=O)C3(C)C)nn2Cc1ccc(Cl)cc1F` [Example 9, 3-[1-(4-Chloro-2-fluorobenzyl)-5-fluoro-6-methyl-1H-pyrazolo[3,4-b]pyridin-3-yl]-7,7-dimethyl-5,7-dihydro-6H-pyrrolo[2,3-e][1,2,4]triazin-6-one], the “MEC (minimum effective concentration)” value in assay [1] was determined as 300 nM. The half-inhibitory concentration (IC50) in assay [2] was found to be 6 nM.
Turning to `Cc1ccc2c(-c3nnc4c(n3)NC(=O)C4(C)C)nn(Cc3ccc(Cl)cc3F)c2n1` [Example 10, 3-[1-(4-Chloro-2-fluorobenzyl)-6-methyl-1H-pyrazolo[3,4-b]pyridin-3-yl]-7,7-dimethyl-5,7-dihydro-6H-pyrrolo[2,3-e][1,2,4]triazin-6-one], in assay [1], the “MEC (minimum effective concentration)” value worked out at 300 nM. The IC50 in assay [2] stood at 4.5 nM.
Regarding `Cc1nc2c(cc1F)c(-c1nnc3c(n1)NC(=O)C3(C)C)nn2Cc1c(F)ccc(F)c1F` [Example 11, 3-[5-Fluoro-6-methyl-1-(2,3,6-trifluorobenzyl)-1H-pyrazolo[3,4-b]pyridin-3-yl]-7,7-dimethyl-5,7-dihydro-6H-pyrrolo[2,3-e][1,2,4]triazin-6-one], the “MEC (minimum effective concentration)” value in assay [1] came to 30 nM. For the same compound, the half-maximal inhibitory concentration (IC50) in assay [2] came out at 27 nM.
The like results for `Cc1ccc2c(-c3nnc4c(n3)NC(=O)C4(C)C)nn(Cc3c(F)ccc(F)c3F)c2n1` [Example 12, 7,7-Dimethyl-3-[6-methyl-1-(2,3,6-trifluorobenzyl)-1H-pyrazolo[3,4-b]pyridin-3-yl]-5,7-dihydro-6H-pyrrolo[2,3-e][1,2,4]triazin-6-one] were, in that order, 300 nM and 21 nM.
On to `Cc1nc2c(cc1F)c(-c1nnc3c(n1)NC(=O)C3(C)C)nn2Cc1cccc(Cl)c1F` [Example 13, 3-[1-(3-Chloro-2-fluorobenzyl)-5-fluoro-6-methyl-1H-pyrazolo[3,4-b]pyridin-3-yl]-7,7-dimethyl-5,7-dihydro-6H-pyrrolo[2,3-e][1,2,4]triazin-6-one], for which the “MEC (minimum effective concentration)” value in assay [1] turned out to be 100 nM. For the same compound, in assay [2], half-maximal inhibition (IC50) required 42 nM.
The like results for `Cc1ccc2c(-c3nnc4c(n3)NC(=O)C4(C)C)nn(Cc3cccc(Cl)c3F)c2n1` [Example 14, 3-[1-(3-Chloro-2-fluorobenzyl)-6-methyl-1H-pyrazolo[3,4-b]pyridin-3-yl]-7,7-dimethyl-5,7-dihydro-6H-pyrrolo[2,3-e][1,2,4]triazin-6-one] were, in that order, 300 nM and 63 nM.
For the compound `Cc1nc2c(cc1F)c(-c1nnc3c(n1)NC(=O)C3(C)C)nn2Cc1c(F)cccc1F` [Example 15, 3-[1-(2,6-Difluorobenzyl)-5-fluoro-6-methyl-1H-pyrazolo[3,4-b]pyridin-3-yl]-7,7-dimethyl-5,7-dihydro-6H-pyrrolo[2,3-e][1,2,4]triazin-6-one], in assay [1], the “MEC (minimum effective concentration)” value is on record as 65 nM. In assay [2], this compound yielded a half-maximal inhibitory concentration (IC50) of 67 nM.
Turning to `Cc1ccc2c(-c3nnc4c(n3)NC(=O)C4(C)C)nn(Cc3c(F)cccc3F)c2n1` [Example 16, 3-[1-(2,6-Difluorobenzyl)-6-methyl-1H-pyrazolo[3,4-b]pyridin-3-yl]-7,7-dimethyl-5,7-dihydro-6H-pyrrolo[2,3-e][1,2,4]triazin-6-one], the “MEC (minimum effective concentration)” value in assay [1] is given as 300 nM. Also, the IC50 in assay [2] was determined as 24 nM.
As to `Cc1ccc(Cn2nc(-c3nnc4c(n3)NC(=O)C4(C)C)c3cc(F)c(C)nc32)cc1F` [Example 17, 3-[5-Fluoro-1-(3-fluoro-4-methylbenzyl)-6-methyl-1H-pyrazolo[3,4-b]pyridin-3-yl]-7,7-dimethyl-5,7-dihydro-6H-pyrrolo[2,3-e][1,2,4]triazin-6-one], the “MEC (minimum effective concentration)” value in assay [1] came to 300 nM. In assay [2], this compound returned an IC50 of 8 nM.
Turning to `Cc1ccc2c(-c3nnc4c(n3)NC(=O)C4(C)C)nn(Cc3ccc(C)c(F)c3)c2n1` [Example 18, 3-[1-(3-Fluoro-4-methylbenzyl)-6-methyl-1H-pyrazolo[3,4-b]pyridin-3-yl]-7,7-dimethyl-5,7-dihydro-6H-pyrrolo[2,3-e][1,2,4]triazin-6-one], the “MEC (minimum effective concentration)” value in assay [1] was 1000 nM. The same compound gave an IC50 in assay [2] of 10 nM.
As for `Cc1ccc(Cn2nc(-c3nnc4c(n3)NC(=O)C4(C)C)c3cc(F)c(C)nc32)c(F)c1F` [Example 19, 3-[1-(2,3-Difluoro-4-methylbenzyl)-5-fluoro-6-methyl-1H-pyrazolo[3,4-b]pyridin-3-yl]-7,7-dimethyl-5,7-dihydro-6H-pyrrolo[2,3-e][1,2,4]triazin-6-one], the “MEC (minimum effective concentration)” value in assay [1] was determined as 300 nM. In assay [2], this compound showed a half-maximal inhibitory concentration (IC50) of 0.25 nM.
The like results for `Cc1ccc2c(-c3nnc4c(n3)NC(=O)C4(C)C)nn(Cc3ccc(C)c(F)c3F)c2n1` [Example 20, 3-[1-(2,3-Difluoro-4-methylbenzyl)-6-methyl-1H-pyrazolo[3,4-b]pyridin-3-yl]-7,7-dimethyl-5,7-dihydro-6H-pyrrolo[2,3-e][1,2,4]triazin-6-one] were, in that order, 300 nM and 0.65 nM.
Consider `Cc1ccc(Cn2nc(-c3nnc4c(n3)NC(=O)C43CC3)c3ccc(C)nc32)c(F)c1` [Example 22, 3′-[1-(2-Fluoro-4-methylbenzyl)-6-methyl-1H-pyrazolo[3,4-b]pyridin-3-yl]spiro[cyclopropane-1,7′-pyrrolo[2,3-e][1,2,4]triazin]-6′(5′H)-one], for which half-maximal inhibition in assay [2] (IC50) was put at 16 nM.
`Cc1ccc2c(-c3nnc4c(n3)NC(=O)C43CC3)nn(Cc3cccc(F)c3F)c2n1` [Example 24, 3′-[1-(2,3-Difluorobenzyl)-6-methyl-1H-pyrazolo[3,4-b]pyridin-3-yl]spiro[cyclopropane-1,7′-pyrrolo[2,3-e][1,2,4]triazin]-6′(5′H)-one]: the “MEC (minimum effective concentration)” value in assay [1] stood at 300 nM. In addition, the half-maximal inhibitory concentration (IC50) in assay [2] is 21 nM.

The values are drawn from patent US9605008B2, “Benzyl-1H-pyrazolo[3,4-b]pyridines and use thereof” (BAYER PHARMA AKTIENGESELLSCHAFT, priority 2013, dated 2017).
